Test results reported in US20240254119A1 (THIRD HARMONIC BIO, INC., priority 2022, published 2024).

How the values were obtained:
[1] = test system: Caco-2 cells; experiment: Caco-2 permeability assay; type: in vitro ADME; conditions: for Caco-2: Papp A-B: Caco-2, apical to basolateral
Method: Exemplary compounds were tested for cell permeability in Caco-2, MDCKII-MDR1 and MDCKII-BCRP cell lines with efflux transporter engagement inferred from the efflux ratios determined. Procedures and results are described below. […] This feature of certain compounds is in part due to efflux transporter engagement. See, for instance, exemplary such compounds included in data tables below.
The transport buffer in the study was HBSS with 10.0 mM HEPES at pH 7.40±0.05. Test compound was tested at 2.00 μM bi-directionally in duplicate. Digoxin was tested at 10.0 μM bi-directionally in duplicate, while nadolol and metoprolol were tested at 2.00 μM in A to B direction in duplicate. Final DMSO concentration was adjusted to less than 1%. The plate was incubated for 2 hours in CO2 incubator at 37±1° C., with 5% CO2 at saturated humidity without shaking. And all samples after mixed with acetonitrile containing internal standard were centrifuged at 3200×g for 10 min. For nadolol and metoprolol, 200 μL supernatant solution was diluted with 600 μL ultra-pure water for LC-MS/MS analysis. For digoxin and test compounds, 200 μL supernatant solution was diluted with 200 μL ultra-pure water for LC-MS/MS analysis. Concentrations of test and control compounds in starting solution, donor solution, and receiver solution were quantified by LC-MS/MS methodologies, using peak area ratio of analyte/internal standard.
After transport assay, lucifer yellow rejection assay was applied to determine the Caco-2 cell monolayer integrity.
[…] And permeation of lucifer yellow through the monolayer was measured to evaluate the cellular integrity.
The apparent permeability coefficient Papp (cm/s) was calculated using the equation: Papp=(dCr/dt)×Vr/(A×C0), where dCr/dt is the cumulative concentration of compound in the receiver chamber as a function of time (μM/s); Vr is the solution volume in the receiver chamber (0.075 mL on the apical side, 0.25 mL on the basolateral side); A is the surface area for the transport, i.e. 0.0804 cm^2 for the area of the monolayer; C0 is the initial concentration in the donor chamber (μM).
The efflux ratio was calculated using the equation: Efflux Ratio=Papp (BA)/Papp(AB).
Percent recovery was calculated using the equation: % Solution Recovery=100×[(Vr×Cr)+(Vd×Cd)]/(Vd×C0), where Vd is the volume in the donor chambers (0.075 mL on the apical side, 0.25 mL on the basolateral side); Cd and Cr are the final concentrations of transport compound in donor and receiver chambers, respectively.

[2] = Three time point assay for plasma, brain and testes distribution after oral dosing; type: in vivo, rat; conditions: for Brain concentration / Kp testes/plasma / Plasma concentration / Testes concentration / Kp brain/plasma: rat, oral dosing
Method: Exemplary compounds were tested for distribution in plasma, brain and testes tissue following oral dosing of the compounds in rats. Procedures and results are described below.
Male SD Rats were group-housed (up to four animals/sex/cage) in polysulfone cages with certified aspen wood bedding during acclimation and study period.
Certified rodent diet and water was provided to all animals ad libitum, unless fasting for study procedures.
Appropriate amount of test article was accurately weighed and mixed with an appropriate volume of vehicle to get a clear solution or a uniform suspension; vortexing or sonication in water bath may also be need. Animals were dosed within four hours after the formulation is prepared.
For PO dosing, the dose formulation was administered via oral gavage following facility SOPs. The dose volume was determined by the animals' body weight collected on the morning of dosing day. The dose was 10 mg/kg.
Each blood collection (about 1 mL per time point at one or more of 0.5 h, 2 h, 3 h, 5.3 h, and 7 h) was performed from jugular vein or other suitable site of each animal into pre-chilled commercial EDTA-K2 tubes and placed on wet ice until centrifugation.
Blood samples were processed for plasma by centrifugation at approximately 4° C., 3,200 g for 10 min. Plasma was collected respectively and transferred into pre-labeled 96 well plate or polypropylene tubes, quick frozen over dry ice and kept at −60° C. or lower until LC-MS/MS analysis.
Rat brain was perfused with PBS to remove blood before harvest.
After perfusion, brain and testis were homogenized using homogenizing buffer (15 mM PBS (pH7.4):MeOH=2:1) at the ratio of 1:9 (1 g tissue with 9 mL buffer, the dilution ratio is 10). The brain homogenate was kept at −60° C. or lower until LC-MS/MS analysis. General sample processing procedure (brain homogenate & testis homogenate) using 96-well plate: • 1). An aliquot of 40 μL unknown sample, calibration standard, quality control and dilution quality control (if have), single blank, and double blank sample was added to the 96-well plate respectively; • 2). Each sample (except the double blank) was quenched with 400 μL of IS1 respectively (double blank sample was quenched with 400 μL of I), and then the mixture was vortex-mixed for 10 min at 800 rpm and centrifuged for 15 min at 3220×g, 4° C.; • 3). An aliquot of 50 μL supernatant was transferred to another clean 96-well plate and centrifuged for 5 min at 3220×g, 4° C., then the supernatant was directly injected for LC-MS/MS analysis.
• 1. A LC-MS/MS method for the quantitative determination of test compound in biological matrix was developed under Non-GLP compliance. • 2. A calibration curve with at least 6 non-zero calibration standards was applied for the method including LLOQ. • 3. A set of QCs consisting of low, middle, and high concentrations were applied for the method. • 4. N in 1 cassette LC-MS/MS method was developed for samples coming from different studies and the interference among all cassette analytes was evaluated during the method development. • 5. Cassette administration assay was performed if the mass difference (Δmass) among different analytes was more than 4 Da. In this case, interference evaluation was not necessary.
• 1. If sample number within a batch was ≤12, at least one set of standard curve separated with two parts through begin and end of the sequence, was included in the run, and QCs were not required. The recommended injection order was C8, C6, C4, C2, study samples, C7, C5, C3, C1. • 2. If sample number within a batch was >12, one standard curve and two sets of QCs with low, middle and high concentrations were applied for bioanalysis. Meanwhile, QCs number should be more than 5% of study sample number. • 3. Samples with the same types of matrix in different studies were quantified in one analysis run by using the developed N in 1 cassette LC-MS/MS method. • 4. […]

| SMILES | Caco-2: Efflux Ratio [1] | Caco-2: Papp A-B [1] | Brain concentration ([2]; time point 2 h) [ng/g] | Kp testes/plasma ([2]; time point 2 h) | Plasma concentration ([2]; time point 2 h) [ng/mL] | Testes concentration ([2]; time point 2 h) [ng/g] | Kp brain/plasma ([2]; time point 2 h) | further results |
| --- | --- | --- | --- | --- | --- | --- | --- | --- |
| Cc1ccc(-c2noc(C(C)NS(C)(=O)=O)n2)cc1NC(=O)c1cnc2ccccn12 (single isomer, unassigned) [Compound I-237] | 57.6 | 0.50 10^−6 cm/s | 0 | 0.18 | 1090 | 192 | – | – |
| COC(=O)N1CC(c2nc(-c3ccc(Cl)c(NC(=O)c4cnc5ccccn45)c3)no2)C1 [Compound I-339] | 0.56 | 22.2 10^−6 cm/s | 603 | 0.79 | 1200 | 947 | 0.50 | – |
| Cc1ccc(-c2noc([C@H]3C[C@@H]3F)n2)cc1NC(=O)c1cnc2ccc(C#N)cn12 [Compound I-384] | 0.90 | 16.5 10^−6 cm/s | 21.4 | 1.49 | 40.6 | 60.7 | 0.53 | – |
| Cc1ccc(-c2noc([C@H]3CC(F)(F)CN3)n2)cc1NC(=O)c1cnc2ccccn12 [Compound I-359] | 1.19 | 9.88 10^−6 cm/s | 52.7 | 0.12 | 2950 | 345 | 0.02 | – |
| Cc1ccc(-c2noc(C3CC(OCCF)C3)n2)cc1NC(=O)c1cnc2ccccn12 (stereo not shown) [Compound I-369] | 0.77 | 20.6 10^−6 cm/s | 1940 | 1.27 | 1630 | 2060 | 1.19 | – |
| Cc1ccc(-c2noc([C@@H](C)O)n2)cc1NC(=O)c1cnc2ccccn12 [Compound I-270] | 3.35 | 8.5 10^−6 cm/s | 25.6 | 0.09 | 422 | 39.3 | 0.06 | – |
| Cc1ccc(-c2noc(CC(O)C(F)F)n2)cc1NC(=O)c1cnc2ccccn12 (stereo not shown) [Compound I-114] | 4.4 | 6.74 10^−6 cm/s | 113 | 0.29 | 1680 | 482 | 0.07 | Brain concentration ([2]; time point 0.5 h): 106 ng/g; Kp brain/plasma ([2]; time point 0.5 h): 0.07; Kp testes/plasma ([2]; time point 0.5 h): 0.17; Plasma concentration ([2]; time point 0.5 h): 1540 ng/mL; Testes concentration ([2]; time point 0.5 h): 256 ng/g; Brain concentration ([2]; time point 7 h): 45.5 ng/g; Kp brain/plasma ([2]; time point 7 h): 0.07; Kp testes/plasma ([2]; time point 7 h): 0.38; Plasma concentration ([2]; time point 7 h): 693 ng/mL; Testes concentration ([2]; time point 7 h): 248 ng/g; brain penetration as indicated by Kp (Cbrain/Cplasma) ([2]; result in words): do not significantly penetrate the brain or minimally penetrate the brain |
| Cc1ccc(-c2noc(CC(C)O)n2)cc1NC(=O)c1cnc2ccccn12 (racemic) [Compound I-363] | 2.55 | 8.85 10^−6 cm/s | 46 | 0.13 | 815 | 104 | 0.06 | – |
| Cc1nc(-c2ccc(C)c(NC(=O)c3cnc4ccccn34)c2)no1 [Compound I-360] | 0.36 | 12.7 10^−6 cm/s | 3420 | 0.81 | 3650 | 2960 | 0.94 | – |
| Cc1ccc(-c2noc(C3(C)CC(F)(F)CN3)n2)cc1NC(=O)c1cnc2ccccn12 (racemic) [Compound I-328] | 1.02 | 18.2 10^−6 cm/s | 25.4 | 0.93 | 60.3 | 56.2 | 0.42 | – |
| Cc1ccc(-c2noc(C3(O)CC(F)(F)C3)n2)cc1NC(=O)c1cnc2ccccn12 [Compound I-380] | 3.45 | 7.5 10^−6 cm/s | 28.2 | 0.09 | 477 | 44.8 | 0.06 | – |
| COC(=O)N1CC(c2nc(-c3ccc(C(F)F)c(NC(=O)c4cnc5ccccn45)c3)no2)C1 [Compound I-225] | 1.37 | 9.62 10^−6 cm/s | 506 | 0.33 | 3420 | 1140 | 0.15 | – |
| Cc1ccc(-c2noc(CC(C)(C)O)n2)cc1NC(=O)c1cnc2ccccn12 [Compound I-336] | 2.62 | 9.39 10^−6 cm/s | – | – | – | – | – | – |
| CCCNc1ccn2c(C(=O)Nc3cc(-c4noc([C@H]5C[C@@H]5F)n4)ccc3C)cnc2c1 [Compound I-304] | 0.92 | 4.31 10^−6 cm/s | – | – | – | – | – | – |
| Cc1ccc(-c2noc([C@H]3C[C@@H]3F)n2)cc1NC(=O)c1cnc2ccc(F)cn12 [Compound I-288] | 0.56 | 17.4 10^−6 cm/s | – | – | – | – | – | – |
| Cc1ccc(-c2noc(C3CC(F)C3)n2)cc1NC(=O)c1cnc2ccccn12 (stereo not shown) [Compound I-381] | 0.97 | 17.1 10^−6 cm/s | – | – | – | – | – | – |
| Cc1ccc(-c2noc([C@H]3CCC(=O)N3)n2)cc1NC(=O)c1cnc2ccccn12 (racemic) [Compound I-327] | 102 | 0.27 10^−6 cm/s | – | – | – | – | – | – |
| COC(=O)N1CC(c2nc(-c3ccc(C)c(NC(=O)c4cnn5ccc(Br)cc45)c3)no2)C1 [Compound I-280] | 0.86 | 14 10^−6 cm/s | – | – | – | – | – | – |
